# Laboratory results from US7348017B2, “Dithiazole compounds, matrix metalloprotease inhibitors and external preparations for the skin” (Shiseido Co., Ltd., priority 2001, dated 2008).
# Target: T1, MMP-9 (crude enzyme solution derived from a mouse skin) (Mus musculus, UniProt P41245)
# T1 construct: crude enzyme solution derived from a mouse skin; from tissue; host or cells: mouse skin
# Test: Gelatinase group MMPs inhibition test (gelatin zymography)
# Type: biochemical
# Set-up: key: ⊚: The band disappeared.; ◯: The band was slightly confirmed.; Δ: The band became narrower than control.; ×: Unchanged
# Conditions: sample solution 100 μM; gel incubated overnight; size of MMP-9 band compared with control solution
# Protocol: A test material was dissolved in dimethyl sulfoxide (DMSO) to the concentration of 10 mM, to prepare a stock solution. The stock solution was diluted with a measuring buffer (0.05M tris at pH 7.5 containing 0.2M NaCl and 5 mM CaCl2) to adjust the concentration to 100 μM, which was used as a sample solution. As a control solution, a solution containing no test material was similarly prepared.
# (b) Gelatinase Group MMPs Inhibition Test
# As a gelatinase group enzyme, MMP-9 (crude enzyme solution derived from a mouse skin) was used. The test was performed according to a gelatin zymography method (“Bio-antioxidant provitamin C”, Nobuhiko Miwa ed., p.76, 1999, Fragrance Journal, Tokyo).
# That is, a gel containing gelatin in which a predetermined amount of the crude enzyme solution had been subjected to electrophoresis in advance, was incubated overnight with a sample solution or a control solution. After the gel was stained, the appearing band corresponding to MMP-9 was evaluated by a decrease when its size compared with that of a band of control solution. Evaluation criteria was as follows: • ⊚: The band disappeared. • ◯: The band was slightly confirmed. • Δ: The band became narrower than control. • ×: Unchanged.
# T1 sequence (P41245 108-730): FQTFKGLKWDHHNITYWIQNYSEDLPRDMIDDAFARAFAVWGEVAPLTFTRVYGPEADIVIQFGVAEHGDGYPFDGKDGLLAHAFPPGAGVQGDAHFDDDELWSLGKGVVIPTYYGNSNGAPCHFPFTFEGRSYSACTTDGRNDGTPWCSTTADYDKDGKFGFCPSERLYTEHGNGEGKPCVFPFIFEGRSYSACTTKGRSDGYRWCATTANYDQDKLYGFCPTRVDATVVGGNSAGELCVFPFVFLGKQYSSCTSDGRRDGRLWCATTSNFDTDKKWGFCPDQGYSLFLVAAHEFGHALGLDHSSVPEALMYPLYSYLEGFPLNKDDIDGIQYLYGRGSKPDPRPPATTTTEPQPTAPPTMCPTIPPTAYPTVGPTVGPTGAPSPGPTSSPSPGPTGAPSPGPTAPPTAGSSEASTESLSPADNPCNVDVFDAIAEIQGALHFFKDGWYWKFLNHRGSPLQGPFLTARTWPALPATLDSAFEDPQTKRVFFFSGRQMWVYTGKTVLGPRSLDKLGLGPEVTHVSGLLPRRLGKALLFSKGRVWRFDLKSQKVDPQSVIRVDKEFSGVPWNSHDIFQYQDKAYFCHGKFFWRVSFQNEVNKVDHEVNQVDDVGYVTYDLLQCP
row,SMILES,MMPs Inhibition
1,"COc1ccc(S(=O)(=O)N(CC(=O)Nc2nc(=S)ss2)Cc2ccccc2)cc1 [Compound 1, 2-{Benzyl[(4-methoxyphenyl)sulfonyl]amino}-N-(3-thioxo-3H-1,2,4-dithiazol-5-yl) acetoamide]",◯
2,"CC(C)=CCC/C(C)=C/COc1ccc(CC(=O)Nc2nc(=S)ss2)cc1 [Compound 2, 2-{4-[(3,7-Dimethyl-2,6-octadienyl)oxy]phenyl}-N-(3-thioxo-3H-1,2,4-dithiazol-5-yl)acetoamide]",◯
3,"O=C(Cc1ccc(OCc2ccc(F)cc2)cc1)Nc1nc(=S)ss1 [Compound 5, 2-{4-[(4-Fluorobenzyl)oxy]phenyl}-N-(3-thioxo-3H-1,2,4-dithiazol-5-yl)acetoamide]",◯
4,"O=C(Cc1ccccc1OCc1ccc(F)cc1)Nc1nc(=S)ss1 [Compound 7, 2-{2-[(4-Fluorobenzyl)oxy]phenyl}-N-(3-thioxo-3H-1,2,4-dithiazol-5-yl)acetoamide]",◯

# Further lines, results first:
row,MMPs Inhibition,SMILES
1,◯,"O=C(Cc1cccc(OCc2ccc(F)cc2)c1)Nc1nc(=S)ss1 [Compound 8, 2-{3-[(4-Fluorobenzyl)oxy]phenyl}-N-(3-thioxo-3H-1,2,4-dithiazol-5-yl)acetoamide]"
2,◯,"O=C(Cc1cc(OCc2ccc(F)cc2)cc(OCc2ccc(F)cc2)c1)Nc1nc(=S)ss1 [Compound 9, 2-{3,5-Bis[(4-fluorobenzyl)oxy]phenyl}-N-(3-thioxo-3H-1,2,4-dithiazol-5-yl)acetoamide]"
3,⊚,"CC(C)C(C(=O)Nc1nc(=S)ss1)c1ccc(OCc2ccc(F)cc2)cc1 (stereo not shown) [Compound 12, 2-{4-[(4-Fluorobenzyl)oxy]phenyl}-3-methyl-N-(3-thioxo-3H-1,2,4-dithiazol-5-yl)butanamide]"
